According to patent US20250019376A1, “CHROMANE AMIDINE MONOBACTAM ANTIBIOTICS” (priority 2021, published 2025):

What was measured:
Conditions in all cases: lowest concentration inhibiting 95% of growth (OD600); with BLi relebactam 4 μg/mL; 22 hours, 35±2° C.
[1] = test system: Acinetobacter baumannii expressing TEM-1, AmpC, and Oxa-24/40 (CL6188); type: cell-based
Method: (§1) The concentrations of compounds required to inhibit the growth of various strains of bacteria were determined in an assay that assessed bacterial growth by measuring optical density at 600 nm (OD600). The bacterial strains tested included the clinical strains Escherichia co/i expressing NDM-1 (CLB30016), Klebsiella pneumoniae expressing KPC-1 (CL6569), Acinetobacter baumannii expressing TEM-1, AmpC, and Oxa-24/40 (CL6188) and Pseudomonas aeruginosa expressing AmpC (CL5701). All compounds were tested in the presence of a f3 lactamase inhibitor (BLi, Relebactam) in 384-well microplates.
(§2) The clinical strains were stored as frozen single use stocks, thawed and diluted into 1.1× cation-adjusted Mueller-Hinton 11 broth to achieve approximately 2×10^5 CFU/mL. Test compounds were dissolved in DMSO and diluted 1:50 in the assay, resulting in a final concentration range of 100 μM to 0.098 μM. On the day of the assay, 1 μL of test compound was added to the plate followed by 4 μL of 50 μg/mL BLi in MOPS buffer and 45 μL of diluted bacteria. Plates were centrifuged at 1000 rpm for 30 seconds, shaken at approximately 800 rpm for 1 minute, and incubated at 35±2° C. for 22 hours. The concentration of BLi used in the assay was 4 μg/mL. At the end of the incubation, absorbance at 600 nm was determined using a spectrophotometer. Inhibition was quantitated by identifying the lowest concentration of test compound that was required to inhibit […] of the growth of the bacteria.

[2] = test system: Escherichia co/i expressing NDM-1 (CLB30016); test: Growth inhibitory concentration (OD600), E. coli CLB30016; type: cell-based, Escherichia coli
Method: as §1, §2

[3] = test system: Klebsiella pneumoniae expressing KPC-1 (CL6569); test: Growth inhibitory concentration (OD600), K. pneumoniae CL6569; type: cell-based
Method: as §1, §2

[4] = test system: Pseudomonas aeruginosa expressing AmpC (CL5701); test: Growth inhibitory concentration (OD600), P. aeruginosa CL5701; type: cell-based
Method: as §1, §2

SMILES | AB_CL6188 MITC95 [1] | EC_CLB30016 MITC95 [2] | KP_CL6569 MITC95 [3] | PA_CL5701 MITC95 [4]
CC1(C)[C@H](NC(=O)/C(=N\O[C@](C)(C(=O)O)[C@H]2CCc3cc(C(=N)N[C@H]4C[C@@](N)(C(O)CO)C4)ccc3O2)c2csc(N)n2)C(=O)N1OS(=O)(=O)O (stereo partly drawn) [Compound 99, (S)-2-((R)-6-(N-((1R,3R)-3-amino-3-((R)-1,2-dihydroxyethyl)cyclobutyl)carbamimidoyl)chroman-2-yl)-2-((((Z)-1-(2-aminothiazol-4-yl)-2-(((S)-2,2-dimethyl-4-oxo-1-(sulfooxy)azetidin-3-yl)amino)-2-oxoethylidene)amino)oxy)propanoic acid] | 12.5 µM | 6.25 µM | 0.7813 µM | 3.125 µM
CC1(C)[C@H](NC(=O)/C(=N\O[C@](C)(C(=O)O)[C@H]2CCc3cc(C(=N)N[C@H]4C[C@](N)(CCO)C4)ccc3O2)c2csc(N)n2)C(=O)N1OS(=O)(=O)O [Compound 86, (S)-2-((R)-6-(N-((1s,3S)-3-amino-3-(2-hydroxyethyl)cyclobutyl)carbamimidoyl)chroman-2-yl)-2-((((Z)-1-(2-aminothiazol-4-yl)-2-(((S)-2,2-dimethyl-4-oxo-1-(sulfooxy)azetidin-3-yl)amino)-2-oxoethylidene)amino)oxy)propanoic acid] | 6.25 µM | 6.25 µM | 0.3906 µM | 1.563 µM
COCC[C@]1(N)CC[C@@H](NC(=N)c2ccc3c(c2)CC[C@H]([C@](C)(O/N=C(\C(=O)N[C@@H]2C(=O)N(OS(=O)(=O)O)C2(C)C)c2csc(N)n2)C(=O)O)O3)CC1 [Compound 63, (S)-2-((R)-6-(N-((1s,4S)-4-amino-4-(2-methoxyethyl)cyclohexyl)carbamimidoyl)chroman-2-yl)-2-((((Z)-1-(2-aminothiazol-4-yl)-2-(((S)-2,2-dimethyl-4-oxo-1-(sulfooxy)azetidin-3-yl)amino)-2-oxoethylidene)amino)oxy)propanoic acid] | 6.25 µM | 12.5 µM | 0.7813 µM | 3.125 µM
CC1(C)[C@H](NC(=O)/C(=N\O[C@](C)(C(=O)O)[C@H]2CCc3cc(C(=N)N[C@]4(C)CC[C@@H](N)CC4)ccc3O2)c2csc(N)n2)C(=O)N1OS(=O)(=O)O [Compound 71, (S)-2-((R)-6-(N-((1r,4R)-4-amino-1-methylcyclohexyl)carbamimidoyl)chroman-2-yl)-2-((((Z)-1-(2-aminothiazol-4-yl)-2-(((S)-2,2-dimethyl-4-oxo-1-(sulfooxy)azetidin-3-yl)amino)-2-oxoethylidene)amino)oxy)propanoic acid] | 4.688 µM | 9.375 µM | 0.7813 µM | 1.563 µM
CC1(C)[C@H](NC(=O)/C(=N\O[C@](C)(C(=O)O)[C@H]2CCc3cc(C(=N)N[C@H]4CC[C@](O)(CN)CC4)ccc3O2)c2csc(N)n2)C(=O)N1OS(=O)(=O)O [Compound 59, (S)-2-((R)-6-(N-((1s,4S)-4-(aminomethyl)-4-hydroxycyclohexyl)carbamimidoyl)chroman-2-yl)-2-((((Z)-1-(2-aminothiazol-4-yl)-2-(((S)-2,2-dimethyl-4-oxo-1-(sulfooxy)azetidin-3-yl)amino)-2-oxoethylidene)amino)oxy)propanoic acid] | 3.125 µM | 12.5 µM | 0.3906 µM | 1.563 µM
CC1(C)[C@H](NC(=O)/C(=N\O[C@](C)(C(=O)O)[C@H]2CCc3cc(C(=N)N[C@H]4C[C@](N)(C(O)CO)C4)ccc3O2)c2csc(N)n2)C(=O)N1OS(=O)(=O)O (stereo partly drawn) [Compound 100, (S)-2-((R)-6-(N-((1S,3S)-3-amino-3-((R)-1,2-dihydroxyethyl)cyclobutyl)carbamimidoyl)chroman-2-yl)-2-((((Z)-1-(2-aminothiazol-4-yl)-2-(((S)-2,2-dimethyl-4-oxo-1-(sulfooxy)azetidin-3-yl)amino)-2-oxoethylidene)amino)-oxy)propanoic acid] | 6.25 µM | 6.25 µM | 0.7813 µM | 1.563 µM
CC1(C)[C@H](NC(=O)/C(=N\O[C@](C)(C(=O)O)[C@H]2CCc3cc(C(=N)N[C@H]4C[C@](CN)(CO)C4)ccc3O2)c2csc(N)n2)C(=O)N1OS(=O)(=O)O [Compound 78, (S)-2-((R)-6-(N-((1r,3R)-3-(aminomethyl)-3-(hydroxymethyl)cyclobutyl)carbamimidoyl)chroman-2-yl)-2-((((Z)-1-(2-aminothiazol-4-yl)-2-(((S)-2,2-dimethyl-4-oxo-1-(sulfooxy)azetidin-3-yl)amino)-2-oxoethylidene)amino)oxy)propanoic acid] | 4.688 µM | 6.25 µM | 0.3906 µM | 1.563 µM
CC1(C)[C@H](NC(=O)/C(=N\O[C@](C)(C(=O)O)[C@H]2CCc3cc(C(=N)N[C@H]4CC[C@H](N)CC4)ccc3O2)c2csc(N)n2)C(=O)N1OS(=O)(=O)O [Compound 32, (S)-2-((R)-6-(N-((1r,4R)-4-aminocyclohexyl)carbamimidoyl)chroman-2-yl)-2-((((Z)-1-(2-aminothiazol-4-yl)-2-(((S)-2,2-dimethyl-4-oxo-1-(sulfooxy)azetidin-3-yl)amino)-2-oxoethylidene)amino)oxy)propanoic acid] | 3.125 µM | 3.125 µM | 0.3906 µM | 1.563 µM
CC1(C)[C@H](NC(=O)/C(=N\O[C@](C)(C(=O)O)[C@H]2CCc3cc(C(=N)NC4CCC(N)(CO)CC4)ccc3O2)c2csc(N)n2)C(=O)N1OS(=O)(=O)O (stereo partly drawn) [Compound 69, (S)-2-((R)-6-(N-((1r,4R)-4-amino-4-(hydroxymethyl)cyclohexyl)carbamimidoyl)chroman-2-yl)-2-((((Z)-1-(2-aminothiazol-4-yl)-2-(((S)-2,2-dimethyl-4-oxo-1-(sulfooxy)azetidin-3-yl)amino)-2-oxoethylidene)amino)oxy)propanoic acid] | 4.688 µM | 6.25 µM | 0.3906 µM | 1.563 µM
CC1(C)[C@H](NC(=O)/C(=N\O[C@](C)(C(=O)O)[C@H]2CCc3cc(C(=N)N[C@H]4C[C@]5(CCNC5)C4)ccc3O2)c2csc(N)n2)C(=O)N1OS(=O)(=O)O [Compound 22, (S)-2-((R)-6-(N-((2r,4S)-6-azaspiro[3.4]octan-2-yl)carbamimidoyl)chroman-2-yl)-2-((((Z)-1-(2-aminothiazol-4-yl)-2-(((S)-2,2-dimethyl-4-oxo-1-(sulfooxy)azetidin-3-yl)amino)-2-oxoethylidene)amino)oxy)propanoic acid] | 3.125 µM | 3.125 µM | 0.3906 µM | 1.563 µM
